In brackets after ≈: the same amount, converted by molar mass. Like-named read-outs stand apart in the source and are kept apart here.
Key:
[1] = test system: L. gasseri MCC2 DSM 23882; assay: Antibiotic susceptibility, E-test; type: cell-based
Experimental: (§1) Methodology: The susceptibility of L. plantarum MCC1 and L. gasseri MCC2 to antibiotics was tested with the help of E-test (AB Biodisk, Solna). The minimum inhibitory concentration was determined according to the epidemiological breakpoints recommended by the European Commission.

Lactobacillus spp = conditions: European Commission 2002; cited from earlier work
[2] = test system: L. plantarum MCC1 DSM 23881; assay: Antibiotic susceptibility, E-test; type: cell-based; conditions: for resistance of L. plantarum MCC1 to the antibiotic: according to European Commission indicators for lactobacilli
Experimental: as §1

L. plantarum = conditions: FEEDAP Panel EFSA 2008; cited from earlier work
[3] = test system: Obligately homofermentative lactobacilli (OHOL); conditions: FEEDAP Panel EFSA 2008; cited from earlier work
[4] = Lactobacillus gasseri, DSM23882, read-out: MIC
[5] = Lactiplantibacillus plantarum, DSM23881, read-out: MIC
[6] = Lactiplantibacillus plantarum, DSM23881
[7] = E-test, against L. gasseri MCC2
[8] = E-test, against L. plantarum MCC1

CO[C@H]1/C=C/O[C@@]2(C)Oc3c(C)c(O)c4c(O)c(c(/C=N/N5CCN(C)CC5)c(O)c4c3C2=O)NC(=O)/C(C)=C\C=C\[C@H](C)[C@H](O)[C@@H](C)[C@@H](O)[C@@H](C)[C@H](OC(C)=O)[C@@H]1C [Rifampin]
MIC [1, 4]: 0.064 µg/mL (≈ 0.0778 µM) | MIC breakpoint for resistance, Lactobacillus spp (Lactobacillus spp): 32 µg/mL

O=C(O)c1cn(C2CC2)c2cc(N3CCNCC3)c(F)cc2c1=O [Ciprofloxacin]
MIC [2, 5]: 0.38 µg/mL (≈ 1.15 µM) | MIC [1, 4]: > 32 µg/mL | MIC breakpoint for resistance, Lactobacillus spp (Lactobacillus spp): 4 µg/mL

CC[C@H]1OC(=O)[C@H](C)[C@@H](O[C@H]2C[C@@](C)(OC)[C@@H](O)[C@H](C)O2)[C@H](C)[C@@H](O[C@@H]2O[C@H](C)C[C@H](N(C)C)[C@H]2O)[C@](C)(O)C[C@@H](C)C(=O)[C@H](C)[C@@H](O)[C@]1(C)O [Erythromycin]
MIC breakpoint for resistance, L. plantarum (L. plantarum): 1 µg/mL | MIC breakpoint for resistance, OHOL [3]: 1 µg/mL | MIC [2, 6]: 0.125 µg/mL (≈ 0.17 µM) | MIC [1, 4]: 0.047 µg/mL (≈ 0.064 µM) | MIC breakpoint for resistance, Lactobacillus spp (Lactobacillus spp): 4 µg/mL

CC1(C)S[C@@H]2[C@H](NC(=O)[C@H](N)c3ccccc3)C(=O)N2[C@H]1C(=O)O [Ampicillin]
MIC breakpoint for resistance, L. plantarum (L. plantarum): 2 µg/mL | MIC breakpoint for resistance, OHOL [3]: 1 µg/mL | MIC [2, 5]: 0.094 µg/mL (≈ 0.269 µM) | MIC [1, 4]: 0.031 µg/mL (≈ 0.0887 µM) | MIC breakpoint for resistance, Lactobacillus spp (Lactobacillus spp): 2 µg/mL

O=C(N[C@H](CO)[C@H](O)c1ccc([N+](=O)[O-])cc1)C(Cl)Cl [Chloramphenicol]
MIC breakpoint for resistance, L. plantarum (L. plantarum): 8 µg/mL | MIC breakpoint for resistance, OHOL [3]: 4 µg/mL | MIC [2, 5]: 1.5 µg/mL (≈ 4.64 µM) | MIC [1, 4]: 0.75 µg/mL (≈ 2.32 µM) | MIC breakpoint for resistance, Lactobacillus spp (Lactobacillus spp): 16 µg/mL

Trim/sulfam
MIC [1, 7]: >32 µg/mL | MIC breakpoint for resistance, Lactobacillus spp (Lactobacillus spp): 32 µg/mL

CN(C)[C@@H]1C(O)=C(C(N)=O)C(=O)[C@@]2(O)C(O)=C3C(=O)c4c(O)cccc4[C@@](C)(O)[C@H]3C[C@@H]12 [Tetracycline]
MIC [2, 5]: 2 µg/mL (≈ 4.5 µM) | MIC [1, 4]: 0.5 µg/mL (≈ 1.13 µM)

[H]/N=C(/N)N[C@H]1[C@H](O)[C@@H](O)[C@H](O[C@@H]2O[C@@H](C)[C@](O)(C=O)[C@H]2O[C@@H]2O[C@@H](CO)[C@H](O)[C@@H](O)[C@@H]2NC)[C@@H](N/C(N)=N\[H])[C@@H]1O [Streptomycin]
MIC breakpoint for resistance, OHOL [3]: 16 µg/mL | MIC [2, 5]: 16 µg/mL (≈ 27.5 µM) | MIC breakpoint for resistance, Lactobacillus spp (Lactobacillus spp): 16 µg/mL

CN[C@H](CC(C)C)C(=O)N[C@H]1C(=O)N[C@@H](CC(N)=O)C(=O)N[C@H]2C(=O)N[C@H]3C(=O)N[C@H](C(=O)N[C@H](C(=O)O)c4cc(O)cc(O)c4-c4cc3ccc4O)[C@H](O)c3ccc(c(Cl)c3)Oc3cc2cc(c3O[C@@H]2O[C@H](CO)[C@@H](O)[C@H](O)[C@H]2O[C@H]2C[C@](C)(N)[C@H](O)[C@H](C)O2)Oc2ccc(cc2Cl)[C@H]1O [Vancomycin]
MIC breakpoint for resistance, OHOL [3]: 2 µg/mL | MIC [2, 6]: 256 µg/mL (≈ 177 µM) | resistance of L. plantarum MCC1 to the antibiotic [2]: resistant | MIC ([1]; Lactobacillus gasseri, DSM23882): 0.75 µg/mL (≈ 0.518 µM) | MIC breakpoint for resistance, Lactobacillus spp (Lactobacillus spp): 4 µg/mL

Gentamicin
MIC breakpoint for resistance, L. plantarum (L. plantarum): 16 µg/mL | MIC breakpoint for resistance, OHOL [3]: 16 µg/mL | MIC [2, 8]: 1.5 µg/mL | MIC [1, 7]: 2 µg/mL | MIC breakpoint for resistance, Lactobacillus spp (Lactobacillus spp): 1 µg/mL

CO/N=C(\C(=O)N[C@@H]1C(=O)N2C(C(=O)O)=C(COC(N)=O)CS[C@H]12)c1ccco1 [Cefuroxim]
MIC [2, 5]: 0.5 µg/mL (≈ 1.18 µM) | MIC [1, 4]: 0.19 µg/mL (≈ 0.448 µM)

CCC[C@@H]1C[C@@H](C(=O)N[C@@H]([C@H]2O[C@H](SC)[C@H](O)[C@@H](O)[C@H]2O)[C@H](C)Cl)N(C)C1 [Clindamycin]
MIC [2, 5]: 0.064 µg/mL (≈ 0.151 µM)

Quinupristin/dalfopristin
MIC breakpoint for resistance, L. plantarum (L. plantarum): 4 µg/mL | MIC breakpoint for resistance, OHOL [3]: 4 µg/mL | MIC [2, 8]: 1 µg/mL | MIC breakpoint for resistance, Lactobacillus spp (Lactobacillus spp): 4 µg/mL

CO[C@@]1(NC(=O)Cc2cccs2)C(=O)N2C(C(=O)O)=C(COC(N)=O)CS[C@@H]21 [Cefoxitin]
MIC [2, 5]: 256 µg/mL (≈ 599 µM) | resistance of L. plantarum MCC1 to the antibiotic [2]: resistant | MIC [1, 4]: 1.5 µg/mL (≈ 3.51 µM) | MIC breakpoint for resistance, Lactobacillus spp (Lactobacillus spp): 4 µg/mL

C[C@@H](O)[C@H]1C(=O)N2C(C(=O)O)=C(SCCN=CN)C[C@H]12 [Imipenem]
MIC [1, 4]: 0.047 µg/mL (≈ 0.157 µM)

Source: US20140037792A1, “Isolated microorganism strains Lactobacillus plantarum MCC1 DSM 23881 and Lactobacillus gasseri MCC2 DSM 23882 and their use” (Bio-Competence Centre of Healthy Dairy Products, priority 2011, published 2014)
